Measurements taken from paper PMC3973950, “Synthesis of 5-arylidine amino-1,3,4-thiadiazol-2-[(N-substituted benzyol)]sulphonamides endowed with potent antioxidants and anticancer activity induces growth inhibition in HEK293, BT474 and NCI-H226 cells” (Medicinal Chemistry Research, 2013).

Legend:
[1] = Lipid peroxidation inhibitory activity (egg lecithin liposomes, TBA); type: biochemical; details: Conc. ± SD; standard ascorbic acid; read-out: IC50 inhibitory concentration, Lipid peroxidation
Protocol: Egg lecithin (3 mg/mL phosphate buffer, pH 7.4) was sonicated in an ultrasonic sonicator for 10 min to ensure proper liposome formation. Test samples or standard, ascorbic acid (100 μL) of different concentrations (10, 20, 30, 40 50 and 100 μg/mL) was added to liposome mixture (1 mL); the control was without test sample. Lipid peroxidation was induced by adding ferric chloride (10 μL, 400 mM) and L-ascorbic acid (10 μL, 200 mM). After incubation for 1 h at 37 °C, the reaction was stopped by adding hydrochloric acid (2 mL, 0.25 N) containing trichloroacetic acid (150 mg/mL), thiobarbituric acid (3.75 mg/mL) and butylated hydroxy anisole (0.50 mg/mL). The reaction mixture was subsequently boiled for 15 min, cooled and centrifuged at 1,000 rpm for 15 min, and the absorbance of the supernatant was measured at 532 nm (Duh and Yen, [1997]). The % inhibition at different concentrations was calculated by the following formula %Inhibition=[1-(Vt/Vc)]×100 where V t = mean absorption of test compound, V c = mean absorption of control.
The IC50 (nM/mL) value was derived from the % inhibition at different concentrations.

[2] = Total antioxidant activity (ABTS radical cation scavenging); type: biochemical; details: Conc. ± SD; three independent experiments in duplicate; standard trolox; read-out: IC50 inhibitory concentration, ABTS^+ radical
Protocol: The ability of the test sample to scavenge 2,2′-azinobis-(3-ethylbenzothiazoline-6-sulphonic acid) (ABTS^·+) radical cation was compared with 6-hydroxy-2,5,7,8-tetramethylchroman-2-carboxylic acid (trolox) standard (Chang et al., [2007]; Erel, [2004]; Re et al., [1999]). The ABTS^·+ radical cation was pregenerated by mixing ABTS stock solution (7 mM) with potassium persulphate (2.45 mM) (final concentration) and incubating for 12–16 h in the dark at room temperature until the reaction was complete and the absorbance was stable. The absorbance of the ABTS^·+ solution was equilibrated to 0.70 (±0.02) by diluting with water at room temperature, then 1 mL of solution was mixed with 10 μL of the test sample (0.05–10 mg/mL), and the absorbance was measured at 734 nm after 6 min. All experiments were repeated three times. The percentage inhibition of absorbance was calculated and plotted as a function of the concentration of standard and sample to determine the trolox equivalent antioxidant concentration (TEAC). To calculate the TEAC, the gradient of the plot for the sample was divided by the gradient of the plot for trolox. The IC50 inhibitory concentration (nM/mL) values of tested compounds are depicted in Table 1. The ABTS^·+ radical scavenging activity of the samples was expressed as S%=[(Acontrol-Asample)/Acontrol]×100 where A control is the absorbance of the blank control (ABTS^·+ solution without test sample), and A sample is the absorbance of the test sample.

[3] = system: root meristem cells of Allium cepa; assay: In vitro antimitotic activity and cytogenetic analysis, Allium cepa meristem root model; type: cell-based; details: for Aberrant cells (%) ± SEM / Chromosome breaks (%) ± SEM / MNC (‰) ± SEM (micronuclei per 1,000 cells) / Polar deviations (%) ± SEM / Stickiness (%) ± SEM / MI (%) ± SEM (mitotic index): compounds 1 mg/mL, PC (EMS) 2 × 10^−2 M; for MI (%) ± SEM (mitotic index): lower MI = higher activity, negative control 6.22
Protocol: Small bulbs (1.5–2.0 cm in diameter) of the common onion, A. cepa (2n = 16), were purchased from vendor at a local market. Prior to initiating the test, the outer scales of the bulbs and the dry bottom plate were removed without destroying the root primordia. The roots of A. cepa were grown in distilled water in Erlenmeyer flasks (200 mL capacity) under laboratory conditions (dark 24 °C). For each synthesized compound sample, after reaching a length of 3 cm (±0.5 cm), a series of six bulbs were placed in distilled water (pH 7.3) for 48 h and then onion roots were treated with the synthesized compound at 1 mg/mL concentrations of each tested compound. The test tubes were kept in an incubator at 22 ± 1 °C, and the test samples were changed daily at the same time. Several of the newly formed root tips were then cut from each bulb and examined for any visible morphological abnormalities. The bulbs with satisfactory root lengths (2–2.5 cm) were used in the study, while those with exceptionally long or short roots were discarded (on average 2–3 bulbs). Therefore, individual sets of five bulbs were used for each extract sample.
Distilled water (pH 7.3) was used as a negative control, and EMS (2 × 10^−2 M) used as a positive control mutagen (Fiskesjo, [1993], [1997]). After 24 h of exposure, several root tips were removed from the bulbs, fixed in 3:1 (v/v) ethanol (90 %)/glacial acetic acid (45 %) and stored overnight at 4 °C. The next day, they were placed in 70 % (v/v) aqueous alcohol and refrigerated until used. Allium roots were softened by digesting with HCl and rinsed the roots in water. After removing the water from the third rinse, the roots were covered with the orcein acetate stain. The roots were incubated in the stain for 12 min. During this time, the very tip of the root begins to turn red as the DNA stains the numerous small actively dividing cells at the tip. A root was transferred to the centre of a clean microscope slide, and a drop of water was added. Using a razor blade most of the unstained part of the root was cut off and discarded. The root tip was covered with a cover slip and then carefully pushed down on the cover slide with the wooden end of a dissecting probe. […] The root tip should spread out to a diameter about 0.5–1 cm. Five slides were prepared per bulb.
The following parameters were used for the determination of cytotoxicity and genotoxicity: • (i) the mitotic index (MI) was calculated as the ratio between the number of mitotic cells and the total number of cells scored and expressed as percentage using following formula as per standard procedures. Mitoticindex=Numberofdividingcells/Totalnumberofcells×100 • (ii) Chromatin aberrations (stickiness, breaks and polar deviation) were used as end points for the determination of cytogenetic effects, and micronuclei (MNC) were scored in interphase cells per 1,000 cells (‰ MNC) (Freshney, [2000]). • (iii) The most frequent abnormalities are shown in microphotographs. After 72 h of exposure to the test samples, the root lengths were measured and used as an index of general toxicity. The results for mitotic index and root length are expressed as percentage of the negative and positive controls. Visible morphological modifications, such as changes in root consistency and colour as well as the presence of swelling (c-tumours), hooks or twists in the roots, were also observed.

[4] = DPPH radical scavenging activity; type: biochemical; details: Conc. ± SD; standard ascorbic acid; read-out: IC50 inhibitory concentration, DPPH radical
Protocol: Compounds of SC series were evaluated for their in vitro free radical scavenging activities by 2,2-diphenyl-1-picrylhydrazyl (DPPH) assay method (Blois, [1958]; Shishoo et al., [1999]; Chhajed et al., [2007]). To determine the free radical scavenging activity, a method based on the reduction of a methanolic solution of the coloured DPPH radical was used. To a set of test tubes containing methanol (3 mL), DPPH reagent (2 mg/mL) (50 μL) was added. The initial absorbance was measured. To these test tubes, methanolic solution of different test solutions (1 mg/mL) were added (10–50 μL). Ascorbic acid (0.5 mg/mL) was also added in the concentration of 10, 20, 30, 40, 50 and 100 μL. After 20 min, absorbance was recorded at 516 nm. The experiment was performed in triplicate. The percentage reduction in absorbance was calculated from the initial and final absorbance of each solution (Dhar and Taploo, [1982]).

IC50 [1] | IC50 [2] | Aberrant cells (%) ± SEM [3] | Chromosome breaks (%) ± SEM [3] | Polar deviations (%) ± SEM [3] | Stickiness (%) ± SEM [3] | IC50 [4] | SMILES | MNC (‰) ± SEM (micronuclei per 1,000 cells) [3] | MI (%) ± SEM (mitotic index) [3] | average root length ([3]; after 72 h of treatment, negative control 3.93 cm)
164 ± 14.6 µM | 55.6 ± 6.98 µM | 25.33 ± 9.42% | 0.96 ± 0.46% | 9.15 ± 6.92% | 14.48 ± 2.52% | 63.6 ± 8.35 µM | COc1ccc(C=Nc2nnc(S(=O)(=O)NC(=O)c3ccccc3)s2)cc1 [Compound 9d, N-({5-[(4-Methoxybenzylidene)amino]-1,3,4-thiadiazol-2-yl}sulfonyl)benzamide] | 0.51 ± 0.17 ‰ | 2.34 ± 0.19% | 
134 ± 14.7 µM | 47.9 ± 9.9 µM | 26.74 ± 6.56% | 2.72 ± 0.94% | 8.41 ± 1.35% | 9.88 ± 1.46% | 107 ± 18.1 µM | O=C(NS(=O)(=O)c1nnc(N=Cc2ccc(O)cc2)s1)c1ccccc1 [Compound 9e, N-({5-[(4-Hydroxybenzylidene)amino]-1,3,4-thiadiazol-2-yl}sulfonyl)benzamide] | 0.21 ± 0.06 ‰ | 1.27 ± 0.11% | 
133 ± 11.5 µM | 93.3 ± 10.7 µM | 24.64 ± 7.01% | 3.36 ± 0.57% | 7.32 ± 1.24% | 9.12 ± 1.33% | 88.2 ± 11.1 µM | O=C(NS(=O)(=O)c1nnc(N=Cc2ccc(Cl)cc2)s1)c1ccccc1 [Compound 9b, N-({5-[(4-Chlorobenzylidene)amino]-1,3,4-thiadiazol-2-yl}sulfonyl)benzamide] | 0.42 ± 0.18 ‰ | 2.77 ± 0.19% | 
 |  | 29.83 ± 5.03% | 2.43 ± 0.67% | 8.91 ± 1.56% | 16.50 ± 3.23% |  | CN(C)c1ccc(C=Nc2nnc(S(=O)(=O)NC(=O)c3ccccc3)s2)cc1 [Compound 9h, N-[(5-{[4-(Dimethylamino)benzylidene]amino}-1,3,4-thiadiazol-2-yl)sulfonyl]benzamide] | 0.31 ± 0.14 ‰ | 1.07 ± 0.13% | 

The remaining lines, values behind:

SMILES | IC50 [1] | IC50 [2] | Aberrant cells (%) ± SEM [3] | Chromosome breaks (%) ± SEM [3] | Polar deviations (%) ± SEM [3] | Stickiness (%) ± SEM [3] | IC50 [4] | MNC (‰) ± SEM (micronuclei per 1,000 cells) [3] | MI (%) ± SEM (mitotic index) [3] | average root length ([3]; after 72 h of treatment, negative control 3.93 cm)
O=C(NS(=O)(=O)c1nnc(N=Cc2ccccc2)s1)c1ccccc1 [Compound 9a, N-{[5-(Benzylidenamino)-1,3,4-thiadiazol-2-yl]sulphonyl} benzamide] | 122 ± 18.6 µM | 73.3 ± 7.05 µM | 19.28 ± 5.22% | 6.22 ± 1.02% | 8.62 ± 2.16% | 6.64 ± 2.38% | 134 ± 12.9 µM | 0.34 ± 0.15 ‰ | 3.22 ± 0.16% | 
COc1cc(C=Nc2nnc(S(=O)(=O)NC(=O)c3ccccc3)s2)ccc1O [Compound 9g, N-({5-[(4-Hydroxy-3-methoxybenzylidene)amino]-1,3,4-thiadiazol-2-yl}sulfonyl)benzamide] |  |  | 40.48 ± 12.94% |  | 10.26 ± 2.13% | 32.24 ± 6.92% |  | 0.48 ± 0.32 ‰ | 0.41 ± 0.04% | 
COc1ccccc1C=Nc1nnc(S(=O)(=O)NC(=O)c2ccccc2)s1 [Compound 9c, N-({5-[(2-Methoxybenzylidene)amino]-1,3,4-thiadiazol-2-yl}sulfonyl)benzamide] | 102 ± 14.5 µM | 196 ± 16.6 µM | 38.54 ± 8.18% |  | 7.22 ± 2.61% | 28.04 ± 6.34% | 41.3 ± 4.23 µM | 0.36 ± 0.14 ‰ | 0.53 ± 0.03% | 
O=C(NS(=O)(=O)c1nnc(N=Cc2ccccc2O)s1)c1ccccc1 [Compound 9f, N-({5-[(2-Hydroxybenzylidene)amino]-1,3,4-thiadiazol-2-yl}sulfonyl)benzamide] | 204 ± 20.1 µM | 207 ± 17.4 µM | 33.41 ± 9.47% | 1.47 ± 0.13% | 7.33 ± 2.52% | 21.96 ± 7.22% | 80.6 ± 11.4 µM | 0.39 ± 0.20 ‰ |  | 1.06 cm
